Like-named read-outs stand apart in the source and are kept apart here.
What was measured:
[1] = system: Cbc core transporter CbcWV (PAO1) with chromosomally encoded SBPs; format: cell-based, Pseudomonas aeruginosa; details: pNcbcWV, substrate 10 μM
[2] = system: Cbc core transporter CbcWV; format: cell-based, Pseudomonas aeruginosa; details: MKH13, pNcbcWV, SBP None, substrate 10 μM, single replication
[3] = system: complete Cbc transporter CbcXWV (PAO1); format: cell-based, Pseudomonas aeruginosa; details: pNcbcXWV, substrate 10 μM
[4] = system: cbcXWV from DC3000 in QAC transporter-deficient BT strain; format: cell-based, Pseudomonas syringae pv. tomato; details: BT(pCbcDC3000), unlabelled competitor 0.5 mM, 10 min
[5] = system: P. syringae BT-derived mutants; format: cell-based, Pseudomonas syringae pv. syringae; details: pN, substrate 10 μM
CbcX and CaiX with CbcWV = format: cell-based, Pseudomonas aeruginosa; details: MKH13, pNcbcXWV, pT-PA5388, SBPs CbcX/CaiX, competitor 1 mM
ChoXWV = molecular target: T1, ChoXWV (Sinorhizobium meliloti, UniProt Q92N37); experiment: Competitive uptake, MKH13 expressing choXWV; format: cell-based; details: pNchoXWV, SBP ChoX, [^14C]choline 10 μM, competitor 1 mM
T1 sequence (Q92N37 28-318): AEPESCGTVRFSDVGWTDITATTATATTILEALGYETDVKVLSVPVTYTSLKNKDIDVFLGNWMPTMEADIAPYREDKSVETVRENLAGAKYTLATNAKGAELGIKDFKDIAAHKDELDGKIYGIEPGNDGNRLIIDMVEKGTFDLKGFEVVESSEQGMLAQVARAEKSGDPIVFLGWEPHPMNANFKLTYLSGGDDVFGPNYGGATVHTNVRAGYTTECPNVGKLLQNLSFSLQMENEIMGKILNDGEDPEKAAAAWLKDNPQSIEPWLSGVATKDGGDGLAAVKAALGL
T1 sequence (Q92N36 1-281 partner): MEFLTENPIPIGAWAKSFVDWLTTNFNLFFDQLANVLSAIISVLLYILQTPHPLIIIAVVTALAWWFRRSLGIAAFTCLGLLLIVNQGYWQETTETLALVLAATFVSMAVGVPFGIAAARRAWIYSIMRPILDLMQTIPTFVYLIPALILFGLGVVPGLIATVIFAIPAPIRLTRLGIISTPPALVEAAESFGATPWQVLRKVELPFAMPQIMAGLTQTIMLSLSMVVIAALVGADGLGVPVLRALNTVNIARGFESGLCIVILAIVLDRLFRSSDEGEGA
T1 sequence (Q92N35 1-349 partner): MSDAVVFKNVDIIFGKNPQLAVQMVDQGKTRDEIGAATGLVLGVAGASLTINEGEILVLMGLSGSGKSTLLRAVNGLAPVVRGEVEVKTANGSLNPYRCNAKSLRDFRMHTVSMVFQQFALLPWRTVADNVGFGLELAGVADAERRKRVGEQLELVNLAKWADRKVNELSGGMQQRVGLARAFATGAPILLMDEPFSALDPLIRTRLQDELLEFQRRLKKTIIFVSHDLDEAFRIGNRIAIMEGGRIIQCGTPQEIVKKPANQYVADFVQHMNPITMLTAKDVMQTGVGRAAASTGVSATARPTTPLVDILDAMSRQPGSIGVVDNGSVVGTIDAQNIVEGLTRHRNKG

CbcXWV from B728a = format: cell-based, Pseudomonas syringae pv. syringae; details: Acella, pET-cbcB728a; 1 mM IPTG; substrate 1 mM; single colony
[6] = system: cbcXWV from B728a in QAC transporter-deficient BT strain; format: cell-based, Pseudomonas syringae pv. syringae; details: BT(pCbcB728a), unlabelled competitor 0.5 mM, 10 min
[7] = system: S. meliloti ChoXWV transporter; format: cell-based, Sinorhizobium meliloti; details: substrate 10 μM
[8] = system: E. coli strains MKH13 and Acella; experiment: Total uptake by E. coli strains carrying empty vector; format: cell-based, Escherichia coli
[9] = system: cbcXWV from PAO1 in QAC transporter-deficient BT strain; format: cell-based, Pseudomonas aeruginosa; details: BT(pCbcPAO1), unlabelled competitor 0.5 mM, 10 min
CbcWV with BetXB728a = format: cell-based, Pseudomonas syringae pv. syringae; details: MKH13; pNcbcWV, pT-B3758; SBP BetXB728a; substrate 10 μM; single replication
[10] = system: S. meliloti Cho transporter ChoXWV; format: cell-based, Sinorhizobium meliloti; details: MKH13; pNchoXWV, Plasmid 2 None; SBP ChoX; substrate 10 μM; single replication
CbcXWV from DC3000 = format: cell-based, Pseudomonas syringae pv. tomato; details: Acella, pET-cbcDC3000; 1 mM IPTG; substrate 1 mM; mean (SE), n = 10
CaiX with CbcWV = format: cell-based, Pseudomonas aeruginosa; details: MKH13; pNcbcWV, pT-PA5388; SBP CaiX; [^14C]carnitine 10 μM; competitor 1 mM
CbcWV with CaiXPAO1 = format: cell-based, Pseudomonas aeruginosa; details: MKH13; pNcbcWV, pT-PA5388; SBP CaiXPAO1; substrate 10 μM; single replication
[11] = host BT0028Ko, mean (SE), n = 2
[12] = host BT2916Ko, single replication
[13] = host BT3758Ko, mean (SE), n = 3

With `C[N+](C)(C)C[C@H](O)CC(=O)[O-]` [Carnitine, L-carnitine] as the molecule, how does the Total uptake [1, 11] read?
The Total uptake was 16.3 (0.91) nmol (mg protein)^−1.

What about the Total uptake [1, 12] of the same molecule?
The Total uptake was 0.3 nmol (mg protein)^−1.

What about the Total uptake [1, 13] of the same molecule?
Its Total uptake is 15.1 (0.16) nmol (mg protein)^−1.

What about the Total uptake ([2]; Plasmid 2 None) of the same molecule?
Its Total uptake is 0 nmol (mg protein)^−1.

And the Total uptake ([2]; pTOK2T)?
The Total uptake was 0 nmol (mg protein)^−1.

And the Total uptake [3, 11]?
Its Total uptake is 7.0 (0.4) nmol (mg protein)^−1.

And the Total uptake [3, 12]?
Its Total uptake is 0.5 nmol (mg protein)^−1.

What about the Total uptake [3, 13] of the same molecule?
Its Total uptake is 13.0 (0.3) nmol (mg protein)^−1.

And the “% inhibition of uptake of [^14C]substrate” value ([4]; [^14C]betaine 5 μM)?
The value was −2%.

And the “% inhibition of uptake of [^14C]substrate” value ([4]; [^14C]carnitine 5 μM)?
The value was 94%.

And the “% inhibition of uptake of [^14C]substrate” value ([4]; [^14C]choline 5 μM)?
Its value is −6%.

And the Total uptake ([5]; host BT0028Ko)?
The Total uptake was 0.0 nmol (mg protein)^−1.

What about the Total uptake [5, 12] of the same molecule?
Its Total uptake is 0.1 nmol (mg protein)^−1.

And the Total uptake ([5]; host BT3758Ko)?
Its Total uptake is 0.0 nmol (mg protein)^−1.

And the “% inhibition of uptake of substrate by unlabelled competitor” value (“% inhibition of uptake of substrate” below) (CbcX and CaiX with CbcWV; [^14C]betaine 10 μM)?
Its value is 10%.

And the “% inhibition of uptake of substrate” value (CbcX and CaiX with CbcWV; [^14C]choline 10 μM)?
The value was −2%.

What about the “% inhibition of uptake of substrate” value (ChoXWV) of the same molecule?
The value was 41%.

And the Total uptake (CbcXWV from B728a)?
The Total uptake was 0 nmol (mg protein)^−1.

What about the “% inhibition of uptake of [^14C]substrate” value ([6]; [^14C]betaine 5 μM) of the same molecule?
The value was 5%.

And the “% inhibition of uptake of [^14C]substrate” value ([6]; [^14C]carnitine 5 μM)?
The value was 93%.

And the “% inhibition of uptake of [^14C]substrate” value ([6]; [^14C]choline 5 μM)?
Its value is 5%.

And the Total uptake ([7]; pNchoXW, host BT0028Ko, mean (SE), n = 2)?
The Total uptake was 1.2 (0.1) nmol (mg protein)^−1.

And the Total uptake ([7]; pNchoXW, host BT3758Ko, mean (SE), n = 3)?
The Total uptake was 1.8 (0.4) nmol (mg protein)^−1.

What about the Total uptake ([7]; pNchoXWV, host BT2916Ko, single replication) of the same molecule?
Its Total uptake is 0.1 nmol (mg protein)^−1.

And the Total uptake ([8]; Acella, pET15b, 1 mM IPTG, substrate 1 mM, single colony)?
Its Total uptake is 0 nmol (mg protein)^−1.

And the Total uptake ([8]; MKH13, pME6041, radiolabelled substrate 1 mM, mean (SE), n = 10)?
The Total uptake was 0.5 (0.3) nmol (mg protein)^−1.

And the “% inhibition of uptake of [^14C]substrate” value ([9]; [^14C]betaine 5 μM)?
The value was 2%.

And the “% inhibition of uptake of [^14C]substrate” value ([9]; [^14C]carnitine 5 μM)?
The value was 94%.

What about the “% inhibition of uptake of [^14C]substrate” value ([9]; [^14C]choline 5 μM) of the same molecule?
Its value is 1%.

What about the Total uptake (CbcWV with BetXB728a) of the same molecule?
Its Total uptake is 0 nmol (mg protein)^−1.

What about the Total uptake [10] of the same molecule?
The Total uptake was 0 nmol (mg protein)^−1.

What about the Total uptake (CbcXWV from DC3000) of the same molecule?
Its Total uptake is 0.59 (0.82) nmol (mg protein)^−1.

And the “% inhibition of uptake of substrate” value (CaiX with CbcWV)?
The value was 91%.

What about the Total uptake (CbcWV with CaiXPAO1) of the same molecule?
The Total uptake was 3.8 nmol (mg protein)^−1.

From article PMC5503199 (Molecular microbiology, 2009)
